Reference: ChEMBL document CHEMBL4613325, “Design of Development Candidate eFT226, a First in Class Inhibitor of Eukaryotic Initiation Factor 4A RNA Helicase” (J Med Chem, 2020)

Experiments:
MDA-MB-231 = assay: Antiproliferative activity against human MDA-MB-231 cells assessed as reduction in cell proliferation incubated for 72 hrs by CellTiter-Glo reagent based assay; format: functional; settings: MDA-MB-231, 72 h
hERG (KCNH2) = hERG (KCNH2) (Homo sapiens, UniProt Q12809); assay: Inhibition of human ERG at 10 uM by patch-clamp assay relative to control
[1] = Stability in human liver microsomes assessed as parent compound remaining at 1 uM pre-incubated for 10 mins before NADPH addition and measured after 30 mins by LC/MS/MS analysis; format: ADME, Microsome; settings: read-out: Stability
[2] = Stability in rat liver microsomes assessed as parent compound remaining at 1 uM pre-incubated for 10 mins before NADPH addition and measured after 30 mins by LC/MS/MS analysis; format: ADME, Microsome; settings: read-out: Stability
[3] = Apparent permeability from apical to basolateral side in human Caco2 cells at 10 uM by LC/MS/MS analysis
[4] = Efflux ratio in human Caco2 cells at 10 uM by LC/MS/MS analysis; settings: for efflux ratio at 10 µM: Caco-2

Chain of hERG (KCNH2) (Q12809 whole entry): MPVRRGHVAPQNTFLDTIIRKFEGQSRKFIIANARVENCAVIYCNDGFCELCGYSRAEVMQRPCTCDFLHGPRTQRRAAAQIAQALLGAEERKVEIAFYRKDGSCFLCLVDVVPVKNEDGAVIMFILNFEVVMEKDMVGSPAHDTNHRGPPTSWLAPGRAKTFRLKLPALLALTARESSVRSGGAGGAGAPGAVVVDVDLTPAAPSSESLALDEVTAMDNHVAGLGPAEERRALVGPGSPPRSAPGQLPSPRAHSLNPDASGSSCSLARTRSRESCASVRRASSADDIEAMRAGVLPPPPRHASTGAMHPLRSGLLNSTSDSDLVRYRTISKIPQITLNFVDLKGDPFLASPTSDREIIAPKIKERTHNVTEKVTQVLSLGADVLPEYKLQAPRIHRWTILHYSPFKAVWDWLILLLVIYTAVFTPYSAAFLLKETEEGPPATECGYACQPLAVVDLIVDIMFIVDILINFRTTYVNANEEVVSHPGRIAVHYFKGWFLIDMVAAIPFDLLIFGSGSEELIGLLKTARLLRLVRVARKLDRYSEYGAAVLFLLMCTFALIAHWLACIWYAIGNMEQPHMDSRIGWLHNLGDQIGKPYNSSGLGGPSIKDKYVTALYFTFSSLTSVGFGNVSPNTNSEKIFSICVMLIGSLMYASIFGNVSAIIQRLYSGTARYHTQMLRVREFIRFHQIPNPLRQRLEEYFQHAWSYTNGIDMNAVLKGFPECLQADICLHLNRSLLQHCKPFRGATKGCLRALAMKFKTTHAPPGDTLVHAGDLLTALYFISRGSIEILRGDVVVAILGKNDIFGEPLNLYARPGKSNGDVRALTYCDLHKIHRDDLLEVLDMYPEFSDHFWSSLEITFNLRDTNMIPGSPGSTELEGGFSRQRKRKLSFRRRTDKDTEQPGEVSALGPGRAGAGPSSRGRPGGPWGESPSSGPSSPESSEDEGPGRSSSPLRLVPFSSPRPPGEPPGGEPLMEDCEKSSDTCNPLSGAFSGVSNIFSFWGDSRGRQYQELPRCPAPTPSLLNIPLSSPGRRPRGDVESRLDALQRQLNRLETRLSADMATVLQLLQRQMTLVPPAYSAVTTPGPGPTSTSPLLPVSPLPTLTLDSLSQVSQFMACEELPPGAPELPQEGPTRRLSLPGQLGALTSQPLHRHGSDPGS

| Compound | IC50 (MDA-MB-231) [nM] | further results |
| --- | --- | --- |
| COc1ccc([C@@]23Oc4cc(Cl)cnc4[C@]2(O)[C@H](O)[C@H](C(=O)N(C)C)[C@H]3c2ccccc2)cc1 | 283 |  |
| COc1ccc([C@@]23Oc4cc(C#N)ccc4[C@]2(O)[C@H](O)[C@H](C(=O)N(C)C)[C@H]3c2ccccc2)cc1 (racemic) | 38 |  |
| COc1cncc2c1[C@]1(O)[C@H](O)[C@H](CNC(C)(C)C)[C@@H](c3ccccc3)[C@]1(c1ccc(C#N)cc1)O2 | 301 | inhibition at 10 µM (hERG (KCNH2)): < 10%; remaining at 0.5 h, 1 µM [1]: 99%; remaining at 0.5 h, 1 µM [2]: 92% |
| CN(C)C(=O)[C@H]1[C@@H](O)[C@@]2(O)c3ccc(C#N)cc3O[C@@]2(c2ccc(C#N)cc2)[C@@H]1c1ccccc1 (racemic) | 26 |  |
| N#Cc1ccc([C@@]23Oc4cc(Cl)cnc4[C@]2(O)[C@H](O)C[C@H]3c2ccccc2)cc1 (racemic) | 670 |  |
| CN(C)S(=O)(=O)[C@H]1[C@@H](O)[C@@]2(O)c3ncc(Cl)cc3O[C@@]2(c2ccc(C#N)cc2)[C@@H]1c1ccccc1 (racemic) | 304 |  |
| CN(C)C(=O)[C@H]1[C@@H](O)[C@@]2(O)c3ncc(Cl)cc3O[C@@]2(c2ccc(OC(F)(F)F)cc2)[C@@H]1c1ccccc1 | 603 |  |
| COc1cncc2c1[C@]1(O)[C@H](O)[C@H](CN3CC4(COC4)C3)[C@@H](c3ccccc3)[C@]1(c1ccc(C#N)cc1)O2 | 124 | remaining at 0.5 h, 1 µM [1]: 81%; Papp A→B at 10 µM ([3]; Caco-2): 0.1 ×10⁻⁶ cm/s; efflux ratio at 10 µM [4]: 41; remaining at 0.5 h, 1 µM [2]: 74% |
| CN(C)C[C@H]1[C@@H](O)[C@@]2(O)c3ncc(Cl)cc3O[C@@]2(c2ccc(C#N)cc2)[C@@H]1c1ccccc1 | 239 |  |
| CN(C)C(=O)[C@H]1[C@@H](O)[C@@]2(O)c3cnc(C#N)cc3O[C@@]2(c2ccc(C#N)cc2)[C@@H]1c1ccccc1 | 308 |  |
| COc1cnc2c(c1)O[C@@]1(c3ccc(C#N)cc3)[C@H](c3ccccc3)[C@@H](C(=O)N(C)C)[C@@H](O)[C@@]21O | 159 |  |
| CS(=O)(=O)[C@H]1[C@@H](O)[C@@]2(O)c3ncc(Cl)cc3O[C@@]2(c2ccc(C#N)cc2)[C@@H]1c1ccccc1 | 3020 |  |
| COc1ccc([C@@]23Oc4cc(OC)cnc4[C@]2(O)[C@H](O)[C@H](C(=O)N(C)C)[C@H]3c2ccccc2)cc1 (racemic) | 990 |  |
| COc1ccc2c(c1)O[C@@]1(c3ccc(C#N)cc3)[C@H](c3ccccc3)[C@@H](C(=O)N(C)C)[C@@H](O)[C@@]21O (racemic) | 68 |  |
| N#Cc1ccc([C@@]23Oc4cc(Cl)cnc4[C@]2(O)[C@H](O)[C@H](CO)[C@H]3c2ccccc2)cc1 (racemic) | 1460 |  |
| CN(C)C(=O)[C@H]1[C@@H](O)[C@@]2(O)c3ncc(Cl)cc3O[C@@]2(c2ccc(C(F)F)cc2)[C@@H]1c1ccccc1 | 241 |  |
| CNC(=O)[C@H]1[C@@H](O)[C@@]2(O)c3ncc(Cl)cc3O[C@@]2(c2ccc(C#N)cc2)[C@@H]1c1ccccc1 | 32 | Papp A→B at 10 µM ([3]; Caco-2, Papp): 0.5 ×10⁻⁶ cm/s |
| COc1cncc2c1[C@]1(O)[C@H](O)[C@H](CN3[C@@H]4CCC[C@H]3CC4)[C@@H](c3ccccc3)[C@]1(c1ccc(C#N)cc1)O2 | 143 | remaining at 0.5 h, 1 µM [1]: 62%; Papp A→B at 10 µM ([3]; Caco-2): 0.5 ×10⁻⁶ cm/s; efflux ratio at 10 µM [4]: 35; remaining at 0.5 h, 1 µM [2]: 68% |
| COc1ccc2c(n1)O[C@@]1(c3ccc(C#N)cc3)[C@H](c3ccccc3)[C@@H](C(=O)N(C)C)[C@@H](O)[C@@]21O (racemic) | > 1000 |  |
| CN(C)C(=O)[C@H]1[C@@H](O)[C@@]2(O)c3ncc(Cl)cc3O[C@@]2(c2ccc(F)cc2)[C@@H]1c1ccccc1 | > 1000 |  |

| Compound | IC50 (MDA-MB-231) [nM] | further results |
| --- | --- | --- |
| COc1ccc([C@@]23Oc4cc(OC)ccc4[C@]2(O)[C@H](O)[C@H](C(=O)N(C)C)[C@H]3c2ccccc2)cc1 (racemic) | 198 |  |
| N#Cc1ccc([C@@]23Oc4cc(Cl)cnc4[C@]2(O)[C@H](O)[C@H](c2ncco2)[C@H]3c2ccccc2)cc1 (racemic) | 236 |  |
| COc1cncc2c1[C@]1(O)[C@H](O)[C@H](CN(C)C)[C@@H](c3ccccc3)[C@]1(c1ccc(C#N)cc1)O2 (stereo in doubt; (+)-37) |  | inhibition at 10 µM (hERG (KCNH2)): 11%; remaining at 0.5 h, 1 µM [1]: 75%; Papp ([3]; caco-2, 10 µM, 10 µM): 0.2 ×10⁻⁶ cm/s; Ratio ([4]; caco-2, 10 µM, 10 µM): 23; remaining at 0.5 h, 1 µM [2]: 72% |
| CN(C)C(=O)[C@H]1[C@@H](O)[C@@]2(O)c3ncc(Cl)cc3O[C@@]2(c2ccc(Cl)cc2)[C@@H]1c1ccccc1 | 160 |  |
| COc1cncc2c1[C@]1(O)[C@H](O)[C@H](CN3CC(F)(F)C3)[C@@H](c3ccccc3)[C@]1(c1ccc(C#N)cc1)O2 | 208 | inhibition at 10 µM (hERG (KCNH2)): < 10%; Papp A→B at 10 µM ([3]; Caco-2): 1.9 ×10⁻⁶ cm/s; efflux ratio at 10 µM [4]: 5.7 |
| CNS(=O)(=O)[C@H]1[C@@H](O)[C@@]2(O)c3ncc(Cl)cc3O[C@@]2(c2ccc(C#N)cc2)[C@@H]1c1ccccc1 (racemic) | 2040 |  |
| COc1cncc2c1[C@]1(O)[C@H](O)[C@H](CN(C)CC(F)(F)F)[C@@H](c3ccccc3)[C@]1(c1ccc(C#N)cc1)O2 | 196 | remaining at 0.5 h, 1 µM [1]: < 1%; Papp A→B at 10 µM ([3]; Caco-2): 7.1 ×10⁻⁶ cm/s; efflux ratio at 10 µM [4]: 1.3; remaining at 0.5 h, 1 µM [2]: < 1% |
| CN(C)C(=O)[C@H]1[C@@H](O)[C@@]2(O)c3ncc(Cl)cc3O[C@@]2(c2ccc(C#N)cc2)[C@@H]1c1ccccc1 | 87 | Papp A→B at 10 µM ([3]; Caco-2): 1.8 ×10⁻⁶ cm/s |
| CN(C)C(=O)[C@H]1[C@@H](O)[C@@]2(O)c3ncc(C#N)cc3O[C@@]2(c2ccc(C#N)cc2)[C@@H]1c1ccccc1 | 385 |  |
| Cc1ccc([C@@]23Oc4cc(Cl)cnc4[C@]2(O)[C@H](O)[C@H](C(=O)N(C)C)[C@H]3c2ccccc2)cc1 | 143 |  |
| CN(C)C(=O)[C@H]1[C@@H](O)[C@@]2(O)c3ncc(Cl)cc3O[C@@]2(c2ccc(S(C)(=O)=O)cc2)[C@@H]1c1ccccc1 | > 1000 |  |
| COc1ccc([C@@]23Oc4cc(Cl)ccc4[C@]2(O)[C@H](O)[C@H](C(=O)N(C)C)[C@H]3c2ccccc2)cc1 (racemic) | 52 |  |
| COc1cncc2c1[C@]1(O)[C@H](O)[C@H](CN3CCCCC3)[C@@H](c3ccccc3)[C@]1(c1ccc(C#N)cc1)O2 | 50 | remaining at 0.5 h, 1 µM [1]: 81%; remaining at 0.5 h, 1 µM [2]: 56% |
| COc1nccc2c1[C@]1(O)[C@H](O)[C@H](C(=O)N(C)C)[C@@H](c3ccccc3)[C@]1(c1ccc(C#N)cc1)O2 (racemic) | 314 |  |
| N#Cc1ccc([C@@]23Oc4cc(Cl)cnc4[C@]2(O)[C@H](O)[C@H](C(N)=O)[C@H]3c2ccccc2)cc1 | 90 | Papp A→B at 10 µM ([3]; Caco-2): 0.5 ×10⁻⁶ cm/s |
| CN(C)C(=O)[C@H]1[C@@H](O)[C@@]2(O)c3ccc(Cl)cc3O[C@@]2(c2ccc(C#N)cc2)[C@@H]1c1ccccc1 (racemic) | 19 |  |
| COc1cncc2c1[C@]1(O)[C@H](O)[C@H](CN3[C@@H]4CC[C@H]3COC4)[C@@H](c3ccccc3)[C@]1(c1ccc(C#N)cc1)O2 | 101 | remaining at 0.5 h, 1 µM [1]: 51%; Papp A→B at 10 µM ([3]; Caco-2): 1.9 ×10⁻⁶ cm/s; efflux ratio at 10 µM [4]: 5.3; remaining at 0.5 h, 1 µM [2]: 51% |
| COc1ccc([C@@]23Oc4cc(OC)cc(OC)c4[C@]2(O)[C@H](O)[C@H](C(=O)N(C)C)[C@H]3c2ccccc2)cc1 [ROCAGLAMIDE] | 20 |  |
| CN(C)C(=O)[C@H]1[C@@H](O)[C@@]2(O)c3ncc(Cl)cc3O[C@@]2(c2ccc(C(F)(F)F)cc2)[C@@H]1c1ccccc1 | 320 |  |
| COc1ccc([C@@]23Oc4cc(C#N)cnc4[C@]2(O)[C@H](O)[C@H](C(=O)N(C)C)[C@H]3c2ccccc2)cc1 | 601 |  |
